Here are results for four compounds from ChEMBL document CHEMBL5291721, “A preclinical secondary pharmacology resource illuminates target-adverse drug reaction associations of marketed drugs” (Nat Commun, 2023).

Test [1] addresses Vascular endothelial growth factor receptor 2 (Homo sapiens, UniProt P35968). The test is classed as functional.
In test [2] the target is Voltage-dependent L-type calcium channel subunit alpha-1C (Homo sapiens, UniProt Q13936). The test is classed as functional, cell-based.
A further test concerns the target D(1A) dopamine receptor (Homo sapiens, UniProt P21728). The test is classed as functional, cell-based.
Another test has as its target Acetylcholinesterase (Homo sapiens, UniProt P22303). The test is classed as functional.
Test [3] deals with T1, Estrogen receptor (Homo sapiens, UniProt P03372).
T1 sequence (P03372 whole entry): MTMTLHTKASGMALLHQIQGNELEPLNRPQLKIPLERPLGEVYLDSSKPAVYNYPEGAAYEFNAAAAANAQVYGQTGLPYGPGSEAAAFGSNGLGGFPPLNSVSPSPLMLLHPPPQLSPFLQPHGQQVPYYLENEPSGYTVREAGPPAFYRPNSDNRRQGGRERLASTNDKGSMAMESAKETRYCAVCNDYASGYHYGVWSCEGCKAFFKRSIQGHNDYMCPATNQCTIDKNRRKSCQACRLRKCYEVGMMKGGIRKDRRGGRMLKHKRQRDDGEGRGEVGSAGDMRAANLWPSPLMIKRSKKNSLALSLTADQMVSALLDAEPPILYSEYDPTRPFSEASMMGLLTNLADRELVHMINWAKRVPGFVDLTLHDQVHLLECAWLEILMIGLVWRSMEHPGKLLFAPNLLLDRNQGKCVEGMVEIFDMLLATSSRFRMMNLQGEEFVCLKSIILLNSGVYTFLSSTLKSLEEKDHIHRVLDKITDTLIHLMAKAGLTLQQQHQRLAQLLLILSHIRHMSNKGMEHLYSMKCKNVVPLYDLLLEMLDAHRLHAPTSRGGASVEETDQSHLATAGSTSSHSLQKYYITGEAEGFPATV
The test is classed as functional.

For test [4], the target named is T1, Estrogen receptor. The test is classed as functional. The source holds these as a separate data set.
In a further test the target is Estrogen receptor beta (Homo sapiens, UniProt Q92731).
The target of the next test is Histamine H2 receptor (Homo sapiens, UniProt P25021).
The target of another test is T2, D(4) dopamine receptor (Homo sapiens, UniProt P21917).
T2 sequence (P21917 whole entry): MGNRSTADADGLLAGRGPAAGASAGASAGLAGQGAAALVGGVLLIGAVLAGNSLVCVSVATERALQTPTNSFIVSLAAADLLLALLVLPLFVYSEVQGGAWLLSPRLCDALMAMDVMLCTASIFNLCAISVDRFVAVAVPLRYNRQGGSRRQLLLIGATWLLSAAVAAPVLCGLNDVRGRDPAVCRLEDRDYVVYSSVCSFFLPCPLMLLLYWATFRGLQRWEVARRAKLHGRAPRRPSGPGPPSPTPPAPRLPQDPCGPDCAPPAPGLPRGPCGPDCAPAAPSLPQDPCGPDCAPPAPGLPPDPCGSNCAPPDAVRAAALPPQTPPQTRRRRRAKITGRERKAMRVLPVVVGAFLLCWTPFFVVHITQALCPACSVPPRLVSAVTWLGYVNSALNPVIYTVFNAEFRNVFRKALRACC
Also: assay procedure not described here.

Acetylcholinesterase, sequence (P22303 whole entry): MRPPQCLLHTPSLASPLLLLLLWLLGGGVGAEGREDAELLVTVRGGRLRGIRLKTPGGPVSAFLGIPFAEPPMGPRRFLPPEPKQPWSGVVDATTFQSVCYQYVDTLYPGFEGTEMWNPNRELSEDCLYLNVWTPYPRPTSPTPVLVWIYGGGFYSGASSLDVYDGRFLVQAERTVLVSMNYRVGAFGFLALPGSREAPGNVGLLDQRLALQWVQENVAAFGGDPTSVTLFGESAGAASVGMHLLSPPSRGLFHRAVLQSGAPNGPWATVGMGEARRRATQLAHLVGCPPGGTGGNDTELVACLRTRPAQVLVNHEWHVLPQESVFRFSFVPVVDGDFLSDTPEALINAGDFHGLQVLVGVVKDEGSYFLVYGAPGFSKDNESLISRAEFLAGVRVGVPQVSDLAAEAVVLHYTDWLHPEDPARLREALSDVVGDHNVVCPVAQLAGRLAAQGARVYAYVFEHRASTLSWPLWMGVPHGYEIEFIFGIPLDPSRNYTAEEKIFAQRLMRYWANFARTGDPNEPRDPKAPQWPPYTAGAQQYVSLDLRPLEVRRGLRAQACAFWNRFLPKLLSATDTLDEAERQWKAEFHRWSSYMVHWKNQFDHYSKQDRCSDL
Vascular endothelial growth factor receptor 2, sequence (P35968 whole entry): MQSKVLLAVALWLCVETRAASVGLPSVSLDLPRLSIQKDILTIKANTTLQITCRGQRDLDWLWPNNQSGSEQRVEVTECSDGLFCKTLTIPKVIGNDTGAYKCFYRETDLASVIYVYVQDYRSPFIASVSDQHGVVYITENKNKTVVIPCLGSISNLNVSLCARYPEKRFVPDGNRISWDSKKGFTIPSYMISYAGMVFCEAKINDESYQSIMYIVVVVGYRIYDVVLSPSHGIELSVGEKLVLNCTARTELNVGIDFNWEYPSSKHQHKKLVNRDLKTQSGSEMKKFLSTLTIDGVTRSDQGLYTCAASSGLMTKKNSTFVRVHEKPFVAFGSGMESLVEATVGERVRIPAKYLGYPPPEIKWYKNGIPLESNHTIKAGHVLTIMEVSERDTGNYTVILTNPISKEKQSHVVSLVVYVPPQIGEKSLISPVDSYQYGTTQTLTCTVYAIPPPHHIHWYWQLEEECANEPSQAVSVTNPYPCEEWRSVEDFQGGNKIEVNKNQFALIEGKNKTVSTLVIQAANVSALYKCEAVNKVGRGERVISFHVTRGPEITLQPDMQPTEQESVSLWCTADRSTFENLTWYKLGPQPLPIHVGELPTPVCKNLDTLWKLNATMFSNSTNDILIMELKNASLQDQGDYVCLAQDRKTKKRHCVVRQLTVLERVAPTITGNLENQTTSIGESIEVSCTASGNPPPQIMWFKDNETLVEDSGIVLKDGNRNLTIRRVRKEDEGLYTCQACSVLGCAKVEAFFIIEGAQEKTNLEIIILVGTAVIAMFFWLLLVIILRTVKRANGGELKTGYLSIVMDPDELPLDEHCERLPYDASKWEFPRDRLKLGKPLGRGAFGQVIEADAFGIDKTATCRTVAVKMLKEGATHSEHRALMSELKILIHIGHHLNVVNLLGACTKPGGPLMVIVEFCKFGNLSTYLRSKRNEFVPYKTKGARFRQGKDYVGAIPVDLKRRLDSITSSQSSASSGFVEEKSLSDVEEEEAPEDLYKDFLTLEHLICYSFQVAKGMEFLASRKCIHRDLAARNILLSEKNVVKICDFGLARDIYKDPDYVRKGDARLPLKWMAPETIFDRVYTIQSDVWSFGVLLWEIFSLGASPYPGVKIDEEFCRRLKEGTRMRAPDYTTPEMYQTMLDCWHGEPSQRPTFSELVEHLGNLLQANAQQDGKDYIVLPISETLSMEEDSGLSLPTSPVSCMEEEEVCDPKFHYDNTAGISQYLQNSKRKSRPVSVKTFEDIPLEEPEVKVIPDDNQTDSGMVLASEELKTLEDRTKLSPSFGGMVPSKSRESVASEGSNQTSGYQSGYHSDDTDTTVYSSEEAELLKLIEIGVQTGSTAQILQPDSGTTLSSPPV
D(1A) dopamine receptor, sequence (P21728 whole entry): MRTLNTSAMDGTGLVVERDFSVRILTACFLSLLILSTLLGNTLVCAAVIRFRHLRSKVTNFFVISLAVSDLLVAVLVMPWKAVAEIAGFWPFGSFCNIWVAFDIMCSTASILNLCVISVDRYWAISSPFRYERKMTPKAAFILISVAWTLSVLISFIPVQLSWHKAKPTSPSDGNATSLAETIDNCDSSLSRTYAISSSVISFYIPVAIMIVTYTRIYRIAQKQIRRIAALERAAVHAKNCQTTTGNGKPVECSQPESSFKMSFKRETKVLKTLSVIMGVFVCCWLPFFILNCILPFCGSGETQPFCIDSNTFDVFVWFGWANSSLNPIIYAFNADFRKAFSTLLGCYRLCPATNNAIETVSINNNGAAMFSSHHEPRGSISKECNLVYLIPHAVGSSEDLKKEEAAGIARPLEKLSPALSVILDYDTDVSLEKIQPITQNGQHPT
Estrogen receptor beta, sequence (Q92731 whole entry): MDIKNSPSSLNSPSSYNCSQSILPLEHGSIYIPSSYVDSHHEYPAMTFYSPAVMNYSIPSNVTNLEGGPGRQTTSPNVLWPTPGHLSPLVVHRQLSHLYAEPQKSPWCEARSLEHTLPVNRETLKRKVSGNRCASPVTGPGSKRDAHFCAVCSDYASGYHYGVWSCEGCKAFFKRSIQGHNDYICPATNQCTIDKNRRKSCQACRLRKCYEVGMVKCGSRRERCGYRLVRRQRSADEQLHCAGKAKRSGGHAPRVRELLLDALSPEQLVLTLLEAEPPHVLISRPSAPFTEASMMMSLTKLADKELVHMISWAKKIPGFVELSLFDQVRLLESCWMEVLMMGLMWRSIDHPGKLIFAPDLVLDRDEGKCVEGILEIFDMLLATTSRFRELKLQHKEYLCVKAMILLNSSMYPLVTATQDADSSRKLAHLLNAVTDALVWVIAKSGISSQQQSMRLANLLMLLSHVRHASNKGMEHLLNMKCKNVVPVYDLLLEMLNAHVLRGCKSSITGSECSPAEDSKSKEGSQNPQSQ
Histamine H2 receptor, sequence (P25021 whole entry): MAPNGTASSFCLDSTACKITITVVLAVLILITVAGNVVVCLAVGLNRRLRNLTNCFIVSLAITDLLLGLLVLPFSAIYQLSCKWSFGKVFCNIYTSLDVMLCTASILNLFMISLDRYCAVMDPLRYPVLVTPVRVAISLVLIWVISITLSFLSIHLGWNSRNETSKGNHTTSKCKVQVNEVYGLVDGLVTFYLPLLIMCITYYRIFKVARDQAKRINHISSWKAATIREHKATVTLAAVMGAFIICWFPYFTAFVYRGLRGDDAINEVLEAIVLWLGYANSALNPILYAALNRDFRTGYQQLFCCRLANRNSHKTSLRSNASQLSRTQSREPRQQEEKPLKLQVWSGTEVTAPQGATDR

`O=C1NC(=O)C(c2ccccc2)(c2ccccc2)N1` [PHENYTOIN]: the AC50 in test [1] was more than 30 µM; in test [2], more than 50 µM; at D(1A) dopamine receptor, more than 30 µM; on Acetylcholinesterase, more than 30 µM.

`CC(C)C[C@H](CN)CC(=O)O` [PREGABALIN]: the AC50 (in [1]; on D(1A) dopamine receptor; at Estrogen receptor [3]; on Acetylcholinesterase; at Estrogen receptor [4]; at Estrogen receptor beta) was more than 30 µM each time.

On to `CC[C@H]1OC(=O)[C@H](C)[C@@H](O[C@H]2C[C@@](C)(OC)[C@@H](O)[C@H](C)O2)[C@H](C)[C@@H](O[C@@H]2O[C@H](C)C[C@H](N(C)C)[C@H]2O)[C@](C)(O)C[C@@H](C)/C(=N\OCOCCOC)[C@H](C)[C@@H](O)[C@]1(C)O` [ROXITHROMYCIN], for which the AC50 (in [1]; at D(1A) dopamine receptor; at Estrogen receptor [3]; on Acetylcholinesterase; on Estrogen receptor [4]) was more than 30 µM in each case.

Regarding `CC(=O)S[C@@H]1CC2=CC(=O)CC[C@]2(C)[C@H]2CC[C@@]3(C)[C@@H](CC[C@@]34CCC(=O)O4)[C@H]12` [SPIRONOLACTONE], the AC50 in [1] was more than 30 µM; at Histamine H2 receptor, more than 10 µM; at D(1A) dopamine receptor, more than 30 µM; at Estrogen receptor [3] it was more than 30 µM; at Acetylcholinesterase it was more than 30 µM; at D(4) dopamine receptor it was more than 10 µM. Further, on Estrogen receptor [4], the AC50 was more than 30 µM.

Usually AC50 stands for the concentration at which the activity in the assay is half-maximal.
